The values that follow come from PubChem BioAssay AID392 (SGCOxCompounds, 2006).

Each structure is given as a SMILES string.

The target in the first test is Peroxisomal trans-2-enoyl-CoA reductase (Homo sapiens) (UniProt Q9BY49). As to the kind of experiment: PECR reductase ligand binding by thermal shift, biophysical, human, DSF, SYPRO orange, NADP+ (AID 392). Particulars: recombinant PECR, at 10 µM, protein 2 µM, buffer 10 mM HEPES, pH 7.5, NaCl 150 mM, NADP 200 µM, stronger effect = higher value.
Peroxisomal trans-2-enoyl-CoA reductase (Homo sapiens), sequence (Q9BY49 whole entry, looked up): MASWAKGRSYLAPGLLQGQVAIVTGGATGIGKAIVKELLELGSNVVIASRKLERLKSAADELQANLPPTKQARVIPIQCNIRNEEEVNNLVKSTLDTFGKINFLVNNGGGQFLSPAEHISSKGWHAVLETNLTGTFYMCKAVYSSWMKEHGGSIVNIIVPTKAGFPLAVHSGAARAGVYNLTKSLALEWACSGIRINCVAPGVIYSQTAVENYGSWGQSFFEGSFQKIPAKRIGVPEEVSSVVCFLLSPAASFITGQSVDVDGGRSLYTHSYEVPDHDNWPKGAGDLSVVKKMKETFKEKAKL
Consider `O=C(C1CCN(S(=O)(=O)c2ccc(Br)s2)CC1)N1CCN(C(c2ccccc2)c2ccc(Cl)cc2)CC1` (stereo not drawn), for which the Tm shift worked out at 2.1 Celsius.

`NC(=O)c1ccc[n+](C2OC(COP(=O)(O)OP(=O)(O)OCC3OC(n4cnc5c(N)ncnc54)C(O)C3O)C(O)C2O)c1` (stereo not drawn): the Tm shift came out at 2.2 Celsius.

On to `NC(=O)c1ccc[n+](C2OC(COP(=O)(O)OP(=O)(O)OCC3OC(n4cnc5c(N)ncnc54)C(OP(=O)(O)O)C3O)C(O)C2O)c1` (stereo not drawn), for which the Tm shift worked out at 2.2 Celsius.

For the molecule `CCc1nnc(NS(=O)(=O)c2ccc(NC(=O)/C=C/c3ccc(F)cc3)cc2)s1`, the Tm shift was determined as 2.4 Celsius.

Take `O=C(C1CCC(CNS(=O)(=O)c2ccc(Br)s2)CC1)N1CCN(C(c2ccccc2)c2ccc(Cl)cc2)CC1` (stereo not drawn): the Tm shift worked out at 2.3 Celsius.

Regarding `O=c1oc2cc(O)ccc2c2oc3cc(O)ccc3c12`, the Tm shift was found to be 2.2 Celsius.

The same test, now with this note: recombinant PECR, at 10 µM, protein 2 µM, buffer 10 mM HEPES, pH 7.5, NaCl 150 mM, NADP+ 200 µM, stronger effect = higher value.
In the case of `O=C(O[C@@H]1Cc2c(O)cc(O)cc2O[C@H]1c1ccc(O)c(O)c1)c1cc(O)c(O)c(O)c1`, the Tm shift was 12.6 Celsius.

The test is the same for the next values; noted with them: recombinant PECR, at 100 µM, protein 2 µM, buffer 10 mM HEPES, pH 7.5, NaCl 150 mM, NADP+ 200 µM, stronger effect = higher value.
Turning to `CCCCCCCCCC(=O)SCCNC(=O)CCNC(=O)C(O)C(C)(C)COP(=O)(O)OP(=O)(O)OCC1OC(n2cnc3c(N)ncnc32)C(O)C1OP(=O)(O)O` (stereo not drawn), the Tm shift is 4.1 Celsius.

Take `C[C@@]12CCC3=C(CCc4cc(O)ccc43)[C@H]1CCC2=C(F)F`: the Tm shift was 3.7 Celsius.

Consider `C[C@@]12CCC3=C(CCc4cc(O)ccc43)[C@]13C[C@@H]3CC2=C(F)F`, for which the Tm shift is 23.8 Celsius.

With `C=CC1=C(C)/C(=C/c2[nH]c(Cc3[nH]c(/C=C4\NC(=O)C(C)=C4C=C)c(C)c3CCC(=O)O)c(CCC(=O)O)c2C)NC1=O`, the Tm shift is 10 Celsius.

Take `O=C1C2(Cl)C3(Cl)C4(Cl)C(Cl)(Cl)C5(Cl)C3(Cl)C1(Cl)C5(Cl)C24Cl` (stereo not drawn): the Tm shift is 3.1 Celsius.

With `O=C1Nc2ccccc2C1=O`, the Tm shift is 6.4 Celsius.
